In patent US20240287074A1, “SALTS AND CRYSTALS” (Kinoxis Therapeutics Pty Ltd, priority 2020, published 2024):
Where a name gives a salt, the structure may show the parent alone. Read-outs that look alike come from different tables or passages of the source.

Columns and labels:
[1] = Solvent solubility screen of phosphate salt; assay type: physicochemical; conditions: for solubility: read-out: Approx. Solubility
Protocol: Selected solvent was added in 50 μL aliquots to approximately 10 mg of poorly crystalline phosphate pattern (obtained from above lyophilisation). Between each addition, the mixture was checked for dissolution and where no dissolution was apparent, the mixture was heated to about 40° C. and checked again. This procedure was continued until dissolution was observed or until 2 mL of solvent had been added. Samples in which dissolution was observed were stored uncapped at ambient temperature to allow evaporation. Samples in which dissolution was not observed were filtered via centrifugation. All observed solids were analyzed by XRPD. The solvent systems used during the solvent solubility screen are detailed in Table 3.

[2] = Storage of phosphate pattern 2 at 40° C./75% RH; assay type: physicochemical; conditions: about 16 hours
Protocol: The samples were analyzed by XRPD.

solubility ([1]; 1,4-dioxane, 40 °C, organic solvent or mixture, thermodynamic from solid, 1,4-Dioxane): < 5 mg/mL
solubility ([1]; 2-Butanol, 40 °C, organic solvent or mixture, thermodynamic from solid, 2-Butanol): < 5 mg/mL
solubility ([1]; 2-Ethoxyethanol, 40 °C, organic solvent or mixture, thermodynamic from solid, 2-Ethoxyethanol): < 5 mg/mL
solubility ([1]; 2-methyl tetrahydrofuran, 40 °C, organic solvent or mixture, thermodynamic from solid, 2-Methyl tetrahydrofuran): < 5 mg/mL
solubility ([1]; 2-propanol, 40 °C, organic solvent or mixture, thermodynamic from solid, 2-Propanol): < 5 mg/mL
solubility ([1]; 80% 2-propanol/20% water (% v/v), 40 °C, organic solvent or mixture, thermodynamic from solid, 80% 2-Propanol/20% water (% v/v)): < 5 mg/mL
solubility ([1]; 80% acetone/20% water (% v/v), 40 °C, organic solvent or mixture, thermodynamic from solid, 80% Acetone/20% water (% v/v)): < 5 mg/mL
solubility ([1]; 80% acetonitrile/20% water (% v/v), 40 °C, organic solvent or mixture, thermodynamic from solid, 80% Acetonitrile/20% water (% v/v)): < 5 mg/mL
solubility ([1]; 80% methanol/20% water (% v/v), 40 °C, organic solvent or mixture, thermodynamic from solid, 80% Methanol/20% water (% v/v)): < 5 mg/mL
Approx. Solubility ([1]; N-Methyl pyrrolidone): 17 mg/mL
solubility ([1]; N-methyl pyrrolidone, organic solvent or mixture, thermodynamic from solid, N-Methyl pyrrolidone): 10 to 100 mg/mL
Approx. Solubility ([1]; Water): 17 mg/mL
solubility ([1]; acetone, 40 °C, organic solvent or mixture, thermodynamic from solid, Acetone): < 5 mg/mL
solubility ([1]; acetonitrile, 40 °C, organic solvent or mixture, thermodynamic from solid, Acetonitrile): < 5 mg/mL
solubility ([1]; anisole, 40 °C, organic solvent or mixture, thermodynamic from solid, Anisole): < 5 mg/mL
solubility ([1]; chloroform, 40 °C, organic solvent or mixture, thermodynamic from solid, Chloroform): < 5 mg/mL
solubility ([1]; ethanol, 40 °C, organic solvent or mixture, thermodynamic from solid, Ethanol): < 5 mg/mL
solubility ([1]; ethanol/water Aw 0.4, 40 °C, organic solvent or mixture, thermodynamic from solid, Ethanol/water Aw 0.4): < 5 mg/mL
solubility ([1]; ethanol/water Aw 0.5, 40 °C, organic solvent or mixture, thermodynamic from solid, Ethanol/water Aw 0.5): < 5 mg/mL
solubility ([1]; ethanol/water Aw 0.6, 40 °C, organic solvent or mixture, thermodynamic from solid, Ethanol/water Aw 0.6): < 5 mg/mL
solubility ([1]; ethanol/water Aw 0.7, 40 °C, organic solvent or mixture, thermodynamic from solid, Ethanol/water Aw 0.7): < 5 mg/mL
solubility ([1]; ethanol/water Aw 0.8, 40 °C, organic solvent or mixture, thermodynamic from solid, Ethanol/water Aw 0.8): < 5 mg/mL
solubility ([1]; ethyl acetate, 40 °C, organic solvent or mixture, thermodynamic from solid, Ethyl acetate): < 5 mg/mL
solubility ([1]; ethyl formate, 40 °C, organic solvent or mixture, thermodynamic from solid, Ethyl formate): < 5 mg/mL
solubility ([1]; ethyleneglycol, 40 °C, organic solvent or mixture, thermodynamic from solid, Ethyleneglycol): < 5 mg/mL
solubility ([1]; isopropyl acetate, 40 °C, organic solvent or mixture, thermodynamic from solid, Isopropyl acetate): < 5 mg/mL
solubility ([1]; methanol, 40 °C, organic solvent or mixture, thermodynamic from solid, Methanol): < 5 mg/mL
solubility ([1]; methylethyl ketone, organic solvent or mixture, thermodynamic from solid, Methylethyl ketone): < 5 mg/mL
solubility ([1]; methylisobutyl ketone, organic solvent or mixture, thermodynamic from solid, Methylisobutyl ketone): < 5 mg/mL
solubility ([1]; nitromethane, organic solvent or mixture, thermodynamic from solid, Nitromethane): < 5 mg/mL
solubility ([1]; tert-butylmethyl ether, organic solvent or mixture, thermodynamic from solid, tert-Butylmethyl ether): < 5 mg/mL
solubility ([1]; tetrahydrofuran, organic solvent or mixture, thermodynamic from solid, Tetrahydrofuran): < 5 mg/mL
solubility ([1]; water, thermodynamic from solid, Water): 10 to 100 mg/mL
form by XRPD upon storage at 40° C./75% RH [2]: completely converted to form 1
Structure (SMILES): Cn1ncc2c1Nc1ccccc1NC2 [phosphate pattern 2, phosphoric acid addition salt of 1-methyl-1,4,5,10-tetrahydropyrazolo[3,4-b][1,5]benzodiazepine]
